Data reported in patent US8637562B2, “Methods for detecting sulfhydryl-containing compounds in a biological test sample” (Theravance, Inc., priority 2008, dated 2014).

What was measured:
Format in all cases: in vitro ADME
[1] = Hydrolysis of the methyl acrylate derivative in rat plasma (monomer detection method, LC-MS/MS); conditions: rat plasma containing 1% (v/v) methyl acrylate
Description: Rat blood (0.3 mL) was placed into EDTA microtainer tubes containing methyl acrylate (3 μL) (1:100 volume ratio of methyl acrylate:blood). Blood and methyl acrylate were mixed by gentle rolling and tapping of the tube. After 30 minutes of reaction at room temperature, the blood samples were placed on ice until centrifugation. The blood was processed to obtain plasma by centrifugation for 4 minutes at approximately 12,000 rpm. 0.15 mL of plasma was then transferred to cluster tubes on dry ice.
[drawing 26] into a specified volume of blank rat plasma containing 1% (v/v) of methyl acrylate. Compound III-a is the methyl acrylate derivative of compound I-a. In general, the calibration curve range was 0.1 to 1000 ng/mL of compound III-a in rat plasma. […]
Multiple reaction monitoring (MRM) is the standard technique for quantitative LC-MS/MS experiments. Four specific MRM transitions for compound I-a, compound III-a, compound IV-a, and the internal standard were simultaneously monitored by LC-MS/MS. […]
(§1) [drawing 27] is the hydrolyzed form of compound III-a. […] The relevant derivative concentrations of in vivo samples were determined from the calibration curve. The monomer concentration (in ng/mL units) was calculated from the concentration of the relevant derivative multiplied by the correction factor of the ratio of the molecular weight of the monomer/molecular weight of the derivative.

[2] = Hydrolysis of the methyl acrylate derivative in monkey plasma (monomer detection method, LC-MS/MS)
Description: (§2) Subsequent studies were conducted using dog and monkey plasma. Accordingly, similar calibration standards were prepared in dog and monkey plasma.
(§3) Plasma samples were extracted by protein precipitation. In general, 200 μL of MeCN containing a specified concentration of the internal standard was added into a 50 μL aliquot of each plasma calibration standard, QC, and in vivo plasma sample. The plasma samples were then vortexed and centrifuged. 100 μL of extract was then taken from each plasma sample and reconstituted into 200 μL of 5% MeCN/water containing 0.2% formic acid.
(§4) Multiple reaction monitoring (MRM) is the standard technique for quantitative LC-MS/MS experiments. Four specific MRM transitions for compound I-a, compound III-a, compound IV-a, and the internal standard were simultaneously monitored by LC-MS/MS. 4′-(5-{[(S)-2-(2-Carboxyethylsulfanyl)-4-methylpentanoyl amino]methyl}-2-ethoxy-4-ethylimidazol-1-ylmethyl)-3′-fluorobiphenyl-2-carboxylic acid (compound IV-a):
as §1

[3] = Hydrolysis of the methyl acrylate derivative in dog plasma (monomer detection method, LC-MS/MS)
Description: as §2, §3, §4, §1

CCOc1nc(CC)c(CNC(=O)[C@H](CC(C)C)SCCC(=O)OC)n1Cc1ccc(-c2ccccc2C(=O)O)cc1F [Compound III-a, 4′-(2-ethoxy-4-ethyl-5-{[(S)-2-(2-methoxycarbonylethylsulfanyl)-4-methylpentanoylamino]methyl}imidazol-1-ylmethyl)-3′-fluorobiphenyl-2-carboxylic acid]
hydrolysis of compound III-a to compound IV-a in plasma [1]: completely hydrolyzes to compound IV-a
hydrolysis of compound III-a to compound IV-a in plasma [2]: not
hydrolysis of compound III-a to compound IV-a in plasma [3]: not
